Drawing on PubChem BioAssay AID254 (DTP/NCI, 2004), this text covers T/C for 9 compounds.

Several values for one entry are separate records, joined by “and”; a condition that tells them apart may be missing. Equal entries are not always repeated. Toxic doses and inconclusive results are not listed.

This experiment has as its system L1210 leukemia iv in BDF1 mice, survival T/C. The experiment can be described thus: NCI In Vivo Anticancer Drug Screen. Data for tumor model L1210 Leukemia (intravenous) in B6D2F1 (BDF1) mice. The conditions noted are these: higher = longer survival. As for the experimental part: The antitumor activity of compounds was measured in mice bearing transplantable tumors. Survival or tumor size were measured and the results are expressed as the measurement made in the treated group (T) divided by the measurement made in the vehicle treated control group (C). The tumor model used in this assay is L1210 Leukemia (intravenous) in B6D2F1 (BDF1) mice

Where [1] appears, read: endpoint: mean survival time, dose: 7.0 mg/kg/injection, schedule: Q01DX001 (ip), vehicle: other.

For `COc1cccc2c1C(=O)c1c(O)c3c(c(O)c1C2=O)C[C@@](O)(C(=O)CO)C[C@@H]3OC1CC(N)C(O)C(C)O1` (some centres not stated), the T/C reads like this: (endpoint: mean survival time, dose: 0.6 mg/kg/injection, schedule: Q01DX005 (iv), vehicle: clinical formulation) 100 % of control; (endpoint: mean survival time, dose: 0.7 mg/kg/injection, schedule: Q01DX009 (ip), vehicle: clinical formulation) 97 % of control; (endpoint: mean survival time, dose: 0.7 mg/kg/injection, schedule: Q01DX009 (sc), vehicle: clinical formulation) 100 % of control; (endpoint: mean survival time, dose: 0.75 mg/kg/injection, schedule: Q01DX005 (iv), vehicle: saline) 90 % of control; (endpoint: mean survival time, dose: 0.9 mg/kg/injection, schedule: Q01DX005 (iv), vehicle: clinical formulation) 102 % of control; (endpoint: mean survival time, dose: 1.1 mg/kg/injection, schedule: Q01DX009 (ip), vehicle: clinical formulation) 100 % of control. For the same compound, the T/C was 100 % of control (endpoint: mean survival time, dose: 1.1 mg/kg/injection, schedule: Q01DX009 (sc), vehicle: clinical formulation); 101 % of control (endpoint: mean survival time, dose: 1.4 mg/kg/injection, schedule: Q01DX005 (iv), vehicle: clinical formulation); 101 % of control (endpoint: mean survival time, dose: 1.5 mg/kg/injection, schedule: Q01DX005 (iv), vehicle: saline); 102 % of control (endpoint: mean survival time, dose: 1.7 mg/kg/injection, schedule: Q01DX009 (ip), vehicle: clinical formulation); 105 % of control (endpoint: mean survival time, dose: 1.7 mg/kg/injection, schedule: Q01DX009 (sc), vehicle: clinical formulation); 108 % of control (endpoint: mean survival time, dose: 2.4 mg/kg/injection, schedule: Q01DX005 (iv), vehicle: clinical formulation). The T/C (endpoint: mean survival time, dose: 2.4 mg/kg/injection, schedule: Q01DX009 (ip), vehicle: clinical formulation) was 105 % of control; the T/C (endpoint: mean survival time, dose: 2.4 mg/kg/injection, schedule: Q01DX009 (sc), vehicle: clinical formulation) is 112 % of control; the T/C (endpoint: mean survival time, dose: 2.5 mg/kg/injection, schedule: Q01DX005 (iv), vehicle: saline) was 196 % of control; the T/C (endpoint: mean survival time, dose: 2.8 mg/kg/injection, schedule: Q01DX005 (iv), vehicle: clinical formulation) was 108 % of control and 117 % of control; the T/C (endpoint: mean survival time, dose: 3.0 mg/kg/injection, schedule: Q01DX005 (iv), vehicle: saline) is 114 % of control; the T/C (endpoint: mean survival time, dose: 3.6 mg/kg/injection, schedule: Q01DX009 (ip), vehicle: clinical formulation) was 110 % of control. The T/C runs as follows: (endpoint: mean survival time, dose: 3.6 mg/kg/injection, schedule: Q01DX009 (sc), vehicle: clinical formulation) 119 % of control; (endpoint: mean survival time, dose: 4.0 mg/kg/injection, schedule: Q01DX005 (iv), vehicle: saline) 86 % of control; (endpoint: mean survival time, dose: 4.2 mg/kg/injection, schedule: Q01DX005 (iv), vehicle: clinical formulation) 123 % of control; (endpoint: mean survival time, dose: 6.3 mg/kg/injection, schedule: Q01DX005 (iv), vehicle: clinical formulation) 124 % of control; (endpoint: mean survival time, dose: 7.0 mg/kg/injection, schedule: Q01DX005 (iv), vehicle: saline) 87 % of control; (endpoint: mean survival time, dose: 9.4 mg/kg/injection, schedule: Q01DX005 (iv), vehicle: clinical formulation) 115 % of control. The T/C (endpoint: mean survival time, dose: 14.1 mg/kg/injection, schedule: Q01DX005 (iv), vehicle: clinical formulation) was 113 % of control.
As to `CN(Cc1cnc2nc(N)nc(N)c2n1)c1ccc(C(=O)N[C@@H](CCC(=O)O)C(=O)O)cc1`, the T/C (endpoint: mean survival time, dose: 0.3 mg/kg/injection, schedule: Q01DX008 (ip), vehicle: other) is 110 % of control; the T/C (endpoint: mean survival time, dose: 0.3 mg/kg/injection, schedule: Q01HX008 (ip), vehicle: other) is 121 % of control; the T/C (endpoint: mean survival time, dose: 0.3 mg/kg/injection, schedule: Q03HX008 (ip), vehicle: other) was 118 % of control; the T/C (endpoint: mean survival time, dose: 0.3 mg/kg/injection, schedule: Q06HX008 (ip), vehicle: other) is 116 % of control; the T/C (endpoint: mean survival time, dose: 0.3 mg/kg/injection, schedule: Q12HX008 (ip), vehicle: other) is 115 % of control; the T/C (endpoint: mean survival time, dose: 0.4 mg/kg/injection, schedule: Q01DX008 (ip), vehicle: other) was 121 % of control. In addition, the T/C (endpoint: mean survival time, dose: 0.4 mg/kg/injection, schedule: Q01HX008 (ip), vehicle: other) was 119 % of control; the T/C (endpoint: mean survival time, dose: 0.4 mg/kg/injection, schedule: Q03HX008 (ip), vehicle: other) is 119 % of control; the T/C (endpoint: mean survival time, dose: 0.4 mg/kg/injection, schedule: Q06HX008 (ip), vehicle: other) was 122 % of control; the T/C (endpoint: mean survival time, dose: 0.4 mg/kg/injection, schedule: Q12HX008 (ip), vehicle: other) is 115 % of control; the T/C (endpoint: mean survival time, dose: 2.4 mg/kg/injection, schedule: Q01DX001 (ip), vehicle: other) is 122 % of control; the T/C (endpoint: mean survival time, dose: 3.2 mg/kg/injection, schedule: Q01DX001 (ip), vehicle: other) is 119 % of control.
As for `O=NN(CCCl)C(=O)N[C@H]1CCCC[C@H]1Cl`, the T/C was 190 % of control and 262 % of control (endpoint: mean survival time, dose: 25.0 mg/kg/injection, schedule: Q01DX001 (ip), vehicle: carboxymethylcellulose (CMC)); 427 % of control and 435 % of control (endpoint: mean survival time, dose: 51.0 mg/kg/injection, schedule: Q01DX001 (ip), vehicle: carboxymethylcellulose (CMC)); 588 % of control and 767 % of control (endpoint: mean survival time, dose: 101.0 mg/kg/injection, schedule: Q01DX001 (ip), vehicle: carboxymethylcellulose (CMC)); 111 % of control and 202 % of control (endpoint: mean survival time, dose: 203.0 mg/kg/injection, schedule: Q01DX001 (ip), vehicle: carboxymethylcellulose (CMC)).
Consider `CC(CN1CC(=O)NC(=O)C1)N1CC(=O)NC(=O)C1` (configuration not stated), for which the T/C reads like this: (endpoint: mean survival time, dose: 108.0 mg/kg/injection, schedule: Q04DX003 (ip), vehicle: Klucel (hydroxypropylcellulose) (HPC)) 165 % of control; (endpoint: mean survival time, dose: 180.0 mg/kg/injection, schedule: Q04DX003 (ip), vehicle: Klucel (hydroxypropylcellulose) (HPC)) 176 % of control; (endpoint: mean survival time, dose: 300.0 mg/kg/injection, schedule: Q04DX003 (ip), vehicle: Klucel (hydroxypropylcellulose) (HPC)) 191 % of control.
For the compound `O=C1N[C@@H]([C@H]2CC[C@H](Cl)CN2)C(=O)N[C@H]1[C@H]1CC[C@H](Cl)CN1`, the T/C runs as follows: (endpoint: mean survival time, dose: 4.4 mg/kg/injection, schedule: Q01DX001 (ip), vehicle: saline) 186 % of control; (endpoint: mean survival time, dose: 6.6 mg/kg/injection, schedule: Q01DX001 (ip), vehicle: saline) 202 % of control; (endpoint: mean survival time, dose: 10.0 mg/kg/injection, schedule: Q01DX001 (ip), vehicle: saline) 227 % of control; (endpoint: mean survival time, dose: 15.0 mg/kg/injection, schedule: Q01DX001 (ip), vehicle: saline) 163 % of control.
Regarding `O=NN(CCCl)C(=O)NC1CCS(=O)(=O)C1` (configuration not stated) (tested in a mixture with another compound), the T/C by setting is: under setting [1], 267 % of control; (endpoint: mean survival time, dose: 11.0 mg/kg/injection, schedule: Q01DX001 (ip), vehicle: other) 239 % of control; (endpoint: mean survival time, dose: 14.0 mg/kg/injection, schedule: Q01DX001 (oral), vehicle: other) 276 % of control; (endpoint: mean survival time, dose: 16.0 mg/kg/injection, schedule: Q01DX001 (ip), vehicle: other) 281 % of control; (endpoint: mean survival time, dose: 22.0 mg/kg/injection, schedule: Q01DX001 (oral), vehicle: other) 474 % of control; (endpoint: mean survival time, dose: 24.0 mg/kg/injection, schedule: Q01DX001 (ip), vehicle: other) 281 % of control. In addition, the T/C is, setting by setting: (endpoint: mean survival time, dose: 32.0 mg/kg/injection, schedule: Q01DX001 (oral), vehicle: other) 495 % of control; (endpoint: mean survival time, dose: 36.0 mg/kg/injection, schedule: Q01DX001 (ip), vehicle: other) 232 % of control; (endpoint: mean survival time, dose: 48.0 mg/kg/injection, schedule: Q01DX001 (oral), vehicle: other) 253 % of control; (endpoint: mean survival time, dose: 72.0 mg/kg/injection, schedule: Q01DX001 (oral), vehicle: other) 213 % of control.
Regarding `CCCCc1ccc2nc(NC(=O)OC)[nH]c2c1`, the T/C runs as follows: (endpoint: median survival time, dose: 30.0 mg/kg/injection, schedule: Q04DX003 (iv), vehicle: saline) 100 % of control; (endpoint: median survival time, dose: 40.0 mg/kg/injection, schedule: Q04DX003 (iv), vehicle: saline) 110 % of control; (endpoint: median survival time, dose: 50.0 mg/kg/injection, schedule: Q04DX003 (iv), vehicle: saline) 113 % of control.
As to `O=c1[nH]c(=O)n(C2CC(O)C(CO)O2)cc1F` (configuration not stated), the T/C (endpoint: mean survival time, dose: 400.0 mg/kg/injection, schedule: Q01DX001 (ip), vehicle: saline) is 122 % of control.
As for `O=NN(CCF)C(=O)NC1CSCSC1`, the T/C (endpoint: mean survival time, dose: 3.7 mg/kg/injection, schedule: Q01DX001 (ip), vehicle: other) was 124 % of control; the T/C under setting [1] was 186 % of control and 204 % of control; the T/C (endpoint: mean survival time, dose: 15.0 mg/kg/injection, schedule: Q01DX001 (ip), vehicle: other) is 351 % of control and 417 % of control; the T/C (endpoint: mean survival time, dose: 31.0 mg/kg/injection, schedule: Q01DX001 (ip), vehicle: other) was 582 % of control and 744 % of control; the T/C (endpoint: mean survival time, dose: 62.0 mg/kg/injection, schedule: Q01DX001 (ip), vehicle: other) was 433 % of control and 846 % of control.
